Assay results published in US20150323520A1, “DIAGNOSIS OF KIDNEY TRANSPLANT ACUTE REJECTION” (The Trustees of the Stevens Institute of Technology, priority 2014, published 2015).

Test: Mannitol in urine of kidney transplant patients the day after surgery (SERS / ESI-MS)
Format: in vivo
Source text: FIG. 2 is a graph 200 showing SERS spectra for patients who have received kidney transplants and are experiencing AR. The graph 200 plots Raman intensity, in arbitrary units (“a.u.”), along a vertical axis 210 against Raman shift, in cm^−1, along a horizontal axis 220. As a baseline, the chart 200 includes a background spectrum 230 that may be measured when a SERS sensor (e.g., the device 100 of FIG. 1) is immersed in water. The chart 200 also includes three SERS spectra 240, 250, 260 that may be measured when the same SERS sensor is immersed in urine samples of three AR patients. It may be observed that each of the three SERS spectra 240, 250, 260 includes a corresponding peak 242, 252, 262, at a value of about 1360 cm^−1 along the horizontal axis 220. FIG. 3 is a graph 300 showing SERS spectra for patients who have received kidney transplants and are not experiencing AR. The graph 300 plots Raman intensity, in arbitrary units (“a.u.”), along a vertical axis 310 against Raman shift, in cm^−1, along a horizontal axis 320. As a baseline, the chart 300 includes a background spectrum 330 that may be measured when a SERS sensor (e.g., the device 100 of FIG. 1) is immersed in water (e.g., the same background spectrum as is shown in FIG. 2). The chart 300 also includes three SERS spectra 340, 350, 360 that may be measured when the same SERS sensor is immersed in urine samples of three kidney transplant recipients who are not experiencing AR. It may be observed that the three SERS spectra 340, 350, 360 lack a peak at a value of 1360 cm^−1 along the horizontal axis 320. […] The chart 500 includes a SERS spectrum 530 measured when a SERS sensor (e.g., the device 100 of FIG. 1) is immersed in a urine sample of a kidney transplant recipient who is experiencing graft failure. […] The spectra 610, 620, 630 plot intensity, an expression of relative abundance expressed as a percentage, along a vertical axis 640 against mass-to-charge ratio m/z, an expression of the ratio of atomic mass to charge number, which is a dimensionless quantity, along a horizontal axis 650. […]

OC[C@@H](O)[C@@H](O)[C@H](O)[C@H](O)CO [mannitol]
mannitol in the urine (patients experiencing acute rejection (AR), urine 24 hours after surgery, mannitol (e.g., 20 grams) given during kidney transplant surgery): high levels
metabolism of mannitol (patients experiencing graft failure, SERS peak at 1360 cm^-1 in urine (FIG. 5)): do not metabolize mannitol well
mannitol in patients' urine (transplant patients whose surgery is successful (no AR), urine 24 hours after surgery, mannitol (e.g., 20 grams) given during kidney transplant surgery): barely detectable
